Converted amounts (≈) assume the structure as drawn.
Columns and labels:
Assay type in all cases: cell-based
[1] = test system: Escherichia coli strain ATCC 35421 called "EC21"; test: Reference methods, strain EC21; details: for phenotype according to the EUCAST / reference: from reference MIC
Procedure: A MIC>8 μg/mL can be assigned to this strain with this test, which is also consistent with the results obtained by the reference method.

[2] = test system: Escherichia coli strain ATCC 25922 called "EC10"; test: Raman spectroscopy analysis of individual bacteria exposed to an antibiotic (method of the invention), strain EC10
Procedure: The retained conditioning device is constituted of two fluidic chambers and two antibiotic concentrations are tested: c0: “Without antibiotic” and “Resistance test”.
Let c1 be the concentration of gentamicin: c1=8 μg/mL, which corresponds to the doubling of the concentration 4 μg/mL corresponding to the clinical breakpoint as defined by the EUCAST. The objective of this test is to determine whether the bacterium is considered as resistant according to the definitions provided by the EUCAST.
A solution containing the bacteria to be tested is used as a test sample. This solution is obtained by suspending 5.10^7 CFU/mL in order to have a concentration potentially encountered in a clinical sample, for example a urine collection. This bacteria solution is brought into contact with the interface I of the device functionalized by adsorbing polyethylenimine (PEI) (generic capture). After a capture time of 10 minutes allowing the bacteria to come into contact with the functionalization, the interface I is washed with a water solution, this optional step allowing to eliminate the surplus of uncaptured bacteria still in solution. The physiological medium retained in this example is constituted of a poorly enriched mixture of Bouillon TSB-T Trypcase Soy broth (for example of the reference 42100 of bioMérieux) and of PBS 10× (for example obtained from the PBS tablets of the reference A9162, 0100 of the brand AppliChem) in a 1:9 ratio. After dividing this physiological medium into two fractions, an amount of gentamicin (for example of the reference G1397-10ML of Sigma-Aldrich) is added respectively to each of these fractions, allowing to obtain a different concentration of gentamicin c0 or c1. The solutions of concentrations c0 and c1 produced accordingly are respectively introduced into the chambers C0 or C1. The bacteria captured directly from the sample on the surface I are thus exposed, in a suitable medium, to a different antibiotic concentration depending on the chamber in which they are present.
The device is then heated in order to reach a temperature of 37° C. for two hours and then placed in measurement position on the micro-spectrometer. The marking of the captured bacteria is carried out by an automatic procedure based on image analysis, by a conventional procedure for detecting particles, acquired by means of the micro-spectrometer camera and a suitable light source. This marking allows acquiring automatically a series of Raman spectra (S0 and S1, respectively) acquired on individual bacteria present in each chamber C0 and C1. The number of spectra to be acquired for constituting a dataset depends on the level of requirement on the performances of the tests to be carried out. […]

[3] = test system: Escherichia coli strain ATCC 25922 called "EC10"; test: Reference methods (bioMérieux ETEST and VITEK card N233), strain EC10; details: for phenotype according to the EUCAST / reference: from reference MIC
Description: In order to illustrate the performances obtained accordingly, the average score obtained for all the results that would be obtained with a combination of 5 spectra per concentration (N=5) out of a total set of total acquired spectra of 294 spectra (M=294) is shown in FIG. 4. […] The score indicates the percentage of the test samples that are assigned to a given class by the classifier described above. […] The strain can therefore be described as sensitive according to the invention with a high reliability on the basis of only a few individual bacteria analyses. The result is consistent with the reference methods [BioMérieux products ETEST® (antimicrobial susceptibility testing kit) GM 256 (ref. 412368) and VITEK® card N233 (Gram Negative Susceptibility card; ref. 413117)] which give as a result a MIC=1 μg/mL, which confirms that the bacterium is not resistant according to the EUCAST, its MIC not being strictly above the threshold defined by this organism.
A MIC comprised between 4 μg/mL and 8 μg/mL can therefore be assigned to this strain according to the assays. This variability to a dilution factor is very frequent in this type of assay, the EUCAST indicates, for example, ranges of MIC variations of [2-8]μg/mL for this strain ATCC 25922 during quality controls of the MIC disc diffusion tests, and is therefore consistent with expected results.
The detection of an effect for concentrations greater than 0.005 μg/mL is thus observed. An antibiotic effect of ciprofloxacin can therefore be assigned to the strain tested for concentrations greater than 0.005 μg/mL. This test would therefore define a concentration of 0.005 μg/mL as a MIC. A new test could possibly be performed by adding the lowest concentrations between 0 and 0.005 μg/mL if necessary. […] A test performed with a suitable etest (bioMérieux) allows measuring a MIC of 0.008 μg/mL which confirms that the obtained result is in accordance with the reference methods [BioMérieux products ETEST® CI 32 (antimicrobial susceptibility testing kit; ref. 412311) and VITEK® card N233 (Gram Negative Susceptibility card; ref. 413117)].

Row | Compound | MIC ([1]; Escherichia coli, ATCC35421, read-out: MIC (reference methods, MICREF)) [µg/mL] | phenotype according to the EUCAST / reference [1] | MIC ([2]; Escherichia coli, ATCC25922, Raman, 2 hours at 37° C. incubation, read-out: MIC assigned by the method of the invention) [µg/mL] | MIC ([3]; Escherichia coli, ATCC25922, read-out: MIC (reference methods, MICREF)) [µg/mL] | phenotype according to the EUCAST / reference [3] | MIC (reference methods, MICREF) ([1]; reference methods) [µg/mL] | sensitivity phenotype according to the invention ([2]; Raman test at 8 μg/mL) | percentage of test samples classified as "ATB effect" ([2]; gentamicin 8 μg/mL, 2 hours at 37° C., N=5 spectra per sample, M=294, SVM classifier) [%] | MIC (reference methods, MICREF) ([3]; ETEST / VITEK card N233) [µg/mL]
1 | CC1(C)S[C@@H]2[C@H](NC(=O)[C@H](N)c3ccc(O)cc3)C(=O)N2[C@H]1C(=O)O [amoxicillin] | 256 (≈ 701 µM) | resistant | 4 to 8 (≈ 10.9 to 21.9 µM) | 6 | sensitive | – | – | – | –
2 | gentamicin | – | resistant | – | – | not resistant | > 256 | sensitive | 97.1 | 1

— patent US10704075B2, “Method for determining the reaction of a microorganism to its exposure to a chemical compound” (bioMérieux, priority 2015, dated 2020)
